Reference: the supplement of paper PMC12463676, “Small-molecule dissolution of stress granules by redox modulation benefits ALS models” (Nature Chemical Biology, 2025)

Experiments:
[1] = compound: NC(=O)CCCCC1CCSS1 [lipoamide]; experiment: thermal stability z-score vs DMSO; higher = more thermally stabilized by treatment; details: HeLa, lipoamide concentration 100 µM
Experimental: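 Cellular thermal proteome profiling in HeLa cells. Cells were treated with 100 µM lipoamide for 1 h, with or without 1 mM arsenate for a further 1 h, then heated to ten temperatures (37-66.3 °C), and soluble protein was quantified by TMT mass spectrometry relative to 0.1% DMSO controls. The thermal stability score (sum of log2 fold changes minus the abundance score) was transformed to a z-score; mean of n = 3 experiments.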

[2] = compound: O=[As]([O-])(O)O.[K+] [potassium arsenate]; experiment: as above; details: HeLa; arsenate concentration 1 mM
Experimental: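 Cellular thermal proteome profiling in HeLa cells treated with 1 mM arsenate for 1 h (DMSO pretreatment), heated to ten temperatures (37-66.3 °C). Soluble protein was quantified by TMT mass spectrometry relative to DMSO controls; the thermal stability score was transformed to a z-score; mean of n = 3 experiments.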

[3] = arsenate co-treatment: 1 mM arsenate 1 h
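Note: each temperature applied for 3 min, abundance score taken as mean log2 fold change at the two lowest temperatures, z-score obtained by mean subtraction and division by SD.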

Chain of UniProt Q7KZF4 (Q7KZF4 whole entry): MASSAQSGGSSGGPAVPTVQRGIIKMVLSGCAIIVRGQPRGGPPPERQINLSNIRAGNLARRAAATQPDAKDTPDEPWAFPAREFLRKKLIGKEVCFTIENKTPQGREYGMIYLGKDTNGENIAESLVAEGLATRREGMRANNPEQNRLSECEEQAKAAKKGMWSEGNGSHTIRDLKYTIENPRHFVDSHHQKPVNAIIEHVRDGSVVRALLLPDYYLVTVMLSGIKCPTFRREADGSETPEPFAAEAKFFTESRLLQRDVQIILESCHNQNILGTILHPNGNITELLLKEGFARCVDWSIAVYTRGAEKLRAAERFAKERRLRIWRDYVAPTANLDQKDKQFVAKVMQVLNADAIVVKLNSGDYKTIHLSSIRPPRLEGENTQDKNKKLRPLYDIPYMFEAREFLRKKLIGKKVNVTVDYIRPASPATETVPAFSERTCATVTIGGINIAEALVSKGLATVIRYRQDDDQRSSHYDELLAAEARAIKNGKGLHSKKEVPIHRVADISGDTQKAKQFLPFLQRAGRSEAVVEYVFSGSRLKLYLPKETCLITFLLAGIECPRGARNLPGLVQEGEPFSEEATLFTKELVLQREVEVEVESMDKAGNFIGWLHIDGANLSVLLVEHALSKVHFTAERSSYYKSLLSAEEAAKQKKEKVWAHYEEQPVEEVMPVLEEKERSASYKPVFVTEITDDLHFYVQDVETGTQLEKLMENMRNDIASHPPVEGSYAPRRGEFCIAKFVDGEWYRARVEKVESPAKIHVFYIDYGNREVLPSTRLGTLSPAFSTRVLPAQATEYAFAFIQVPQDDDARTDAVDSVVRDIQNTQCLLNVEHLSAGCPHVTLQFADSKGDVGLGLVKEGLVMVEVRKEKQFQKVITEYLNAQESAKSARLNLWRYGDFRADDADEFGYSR
Chain of UniProt Q16637 (Q16637 whole entry): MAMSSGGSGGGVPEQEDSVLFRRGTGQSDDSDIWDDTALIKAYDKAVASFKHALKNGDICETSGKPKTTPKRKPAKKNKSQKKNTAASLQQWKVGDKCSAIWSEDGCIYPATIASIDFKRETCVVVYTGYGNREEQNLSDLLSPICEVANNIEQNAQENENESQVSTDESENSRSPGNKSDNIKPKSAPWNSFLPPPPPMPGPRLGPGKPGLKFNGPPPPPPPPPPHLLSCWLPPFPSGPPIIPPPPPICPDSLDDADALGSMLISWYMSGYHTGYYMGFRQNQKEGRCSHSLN
Chain of UniProt P60880 (P60880 whole entry, looked up): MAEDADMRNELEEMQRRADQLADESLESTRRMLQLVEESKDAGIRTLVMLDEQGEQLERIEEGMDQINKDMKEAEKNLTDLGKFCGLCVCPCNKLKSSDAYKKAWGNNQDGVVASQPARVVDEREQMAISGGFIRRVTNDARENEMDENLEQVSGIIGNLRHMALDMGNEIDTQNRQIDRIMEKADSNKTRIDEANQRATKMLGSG
Chain of UniProt P53814 (P53814 whole entry): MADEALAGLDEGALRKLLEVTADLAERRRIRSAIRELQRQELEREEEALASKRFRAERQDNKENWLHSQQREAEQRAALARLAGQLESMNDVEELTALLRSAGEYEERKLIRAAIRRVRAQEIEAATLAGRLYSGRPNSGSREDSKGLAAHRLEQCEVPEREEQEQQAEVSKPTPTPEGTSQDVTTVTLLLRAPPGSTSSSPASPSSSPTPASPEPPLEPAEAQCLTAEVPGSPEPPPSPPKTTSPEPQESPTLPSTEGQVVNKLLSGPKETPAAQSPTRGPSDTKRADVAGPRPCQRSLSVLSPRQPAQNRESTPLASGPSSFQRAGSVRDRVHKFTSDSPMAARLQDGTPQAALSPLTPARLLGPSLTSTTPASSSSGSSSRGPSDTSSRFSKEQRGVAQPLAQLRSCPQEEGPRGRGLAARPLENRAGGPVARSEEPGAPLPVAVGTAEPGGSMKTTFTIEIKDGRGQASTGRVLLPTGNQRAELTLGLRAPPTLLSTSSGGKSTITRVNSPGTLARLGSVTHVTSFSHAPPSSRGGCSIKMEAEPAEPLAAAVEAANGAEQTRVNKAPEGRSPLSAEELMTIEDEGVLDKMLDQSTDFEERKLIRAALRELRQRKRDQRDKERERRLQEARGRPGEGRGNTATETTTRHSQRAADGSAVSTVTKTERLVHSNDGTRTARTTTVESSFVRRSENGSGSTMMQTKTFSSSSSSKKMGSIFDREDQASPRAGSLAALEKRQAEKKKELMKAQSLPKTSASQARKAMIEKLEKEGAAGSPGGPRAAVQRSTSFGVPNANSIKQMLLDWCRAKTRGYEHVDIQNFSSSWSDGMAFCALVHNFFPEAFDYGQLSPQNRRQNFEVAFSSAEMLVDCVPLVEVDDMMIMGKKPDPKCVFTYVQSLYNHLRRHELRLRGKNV
Chain of UniProt P09012 (P09012 whole entry): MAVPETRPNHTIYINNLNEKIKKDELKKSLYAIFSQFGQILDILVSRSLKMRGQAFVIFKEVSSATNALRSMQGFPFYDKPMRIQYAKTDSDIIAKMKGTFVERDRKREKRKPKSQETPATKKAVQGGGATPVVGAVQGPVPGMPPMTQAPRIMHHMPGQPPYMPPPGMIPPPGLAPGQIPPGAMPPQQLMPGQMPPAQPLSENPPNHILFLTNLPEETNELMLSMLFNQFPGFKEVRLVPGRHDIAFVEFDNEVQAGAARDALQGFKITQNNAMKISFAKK
Chain of UniProt Q16533 (Q16533 whole entry): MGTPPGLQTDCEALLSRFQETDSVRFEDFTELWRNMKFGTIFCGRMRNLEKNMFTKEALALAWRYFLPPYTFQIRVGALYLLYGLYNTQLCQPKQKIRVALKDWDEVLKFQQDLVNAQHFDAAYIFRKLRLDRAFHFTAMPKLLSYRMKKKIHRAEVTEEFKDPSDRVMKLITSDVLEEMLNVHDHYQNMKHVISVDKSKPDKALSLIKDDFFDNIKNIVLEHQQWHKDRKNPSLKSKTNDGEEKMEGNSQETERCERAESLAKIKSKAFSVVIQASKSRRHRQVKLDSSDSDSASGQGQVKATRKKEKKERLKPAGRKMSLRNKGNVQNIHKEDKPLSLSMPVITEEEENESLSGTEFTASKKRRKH
Chain of UniProt O00161 (O00161 whole entry): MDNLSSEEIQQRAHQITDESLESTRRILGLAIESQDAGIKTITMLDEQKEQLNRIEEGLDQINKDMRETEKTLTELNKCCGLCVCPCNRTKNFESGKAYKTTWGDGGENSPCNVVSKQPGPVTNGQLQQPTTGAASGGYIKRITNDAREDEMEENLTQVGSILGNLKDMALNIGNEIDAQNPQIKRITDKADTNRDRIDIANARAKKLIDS
Chain of UniProt Q6GMV2 (Q6GMV2 whole entry): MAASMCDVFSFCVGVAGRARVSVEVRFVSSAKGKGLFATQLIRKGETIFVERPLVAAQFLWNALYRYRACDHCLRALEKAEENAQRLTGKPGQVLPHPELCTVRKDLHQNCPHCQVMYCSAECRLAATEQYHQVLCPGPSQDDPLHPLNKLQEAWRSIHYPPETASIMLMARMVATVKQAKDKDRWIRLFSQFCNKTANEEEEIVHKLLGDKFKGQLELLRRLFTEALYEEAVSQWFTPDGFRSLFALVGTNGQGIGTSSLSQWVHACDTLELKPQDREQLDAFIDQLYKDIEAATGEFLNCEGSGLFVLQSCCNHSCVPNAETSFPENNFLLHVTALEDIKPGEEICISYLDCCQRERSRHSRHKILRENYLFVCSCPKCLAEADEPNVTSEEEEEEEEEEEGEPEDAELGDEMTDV
Chain of UniProt Q13596 (Q13596 whole entry): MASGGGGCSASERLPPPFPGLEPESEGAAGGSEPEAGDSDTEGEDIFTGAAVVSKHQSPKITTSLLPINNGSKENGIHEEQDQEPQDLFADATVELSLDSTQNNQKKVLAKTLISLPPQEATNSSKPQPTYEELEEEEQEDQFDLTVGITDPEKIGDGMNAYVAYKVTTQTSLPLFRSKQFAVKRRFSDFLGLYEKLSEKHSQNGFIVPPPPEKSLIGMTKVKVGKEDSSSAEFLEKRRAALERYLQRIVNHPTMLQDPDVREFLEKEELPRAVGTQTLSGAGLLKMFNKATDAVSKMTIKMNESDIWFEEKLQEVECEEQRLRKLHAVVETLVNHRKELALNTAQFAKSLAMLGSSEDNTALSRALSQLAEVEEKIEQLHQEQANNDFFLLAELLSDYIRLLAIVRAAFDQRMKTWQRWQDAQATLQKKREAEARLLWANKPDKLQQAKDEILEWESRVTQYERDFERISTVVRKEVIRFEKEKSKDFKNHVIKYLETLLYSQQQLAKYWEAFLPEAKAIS
Chain of UniProt P08579 (P08579 whole entry): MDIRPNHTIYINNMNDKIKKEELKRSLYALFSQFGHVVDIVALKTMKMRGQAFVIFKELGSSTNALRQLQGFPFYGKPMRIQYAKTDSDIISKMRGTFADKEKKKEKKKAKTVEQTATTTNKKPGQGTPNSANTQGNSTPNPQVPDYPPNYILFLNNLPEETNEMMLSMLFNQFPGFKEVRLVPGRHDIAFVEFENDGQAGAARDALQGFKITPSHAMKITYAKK
Chain of UniProt Q9UNH7 (Q9UNH7 whole entry): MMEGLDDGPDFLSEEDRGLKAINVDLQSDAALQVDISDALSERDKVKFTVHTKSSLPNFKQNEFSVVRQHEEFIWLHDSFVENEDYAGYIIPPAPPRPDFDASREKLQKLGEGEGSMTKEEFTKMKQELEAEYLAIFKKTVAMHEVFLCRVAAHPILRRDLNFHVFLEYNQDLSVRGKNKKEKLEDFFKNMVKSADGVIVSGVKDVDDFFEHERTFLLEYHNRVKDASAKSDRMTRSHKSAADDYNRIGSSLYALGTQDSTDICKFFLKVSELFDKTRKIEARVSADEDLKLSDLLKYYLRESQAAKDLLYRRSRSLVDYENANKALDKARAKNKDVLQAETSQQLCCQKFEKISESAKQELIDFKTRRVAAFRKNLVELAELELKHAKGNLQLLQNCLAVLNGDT
Chain of UniProt P09234 (P09234 whole entry): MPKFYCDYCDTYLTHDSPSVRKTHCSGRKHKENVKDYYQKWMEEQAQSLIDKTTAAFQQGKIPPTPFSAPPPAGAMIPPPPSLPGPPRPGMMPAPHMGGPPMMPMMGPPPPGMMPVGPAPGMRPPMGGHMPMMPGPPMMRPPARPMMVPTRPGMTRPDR

Target	thermal stability z-score [1, 3]	thermal stability z-score ([1]; arsenate co-treatment: none)	thermal stability z-score [2]
SMG8 (UniProt Q8ND04)	-1.73	-0.705	0.575
SMG9 (UniProt Q9H0W8)	-0.596	-0.49	-0.274
SMIM12 (UniProt Q96EX1)	-0.371	0.35	0.0454
SMN1 (UniProt Q16637)	0.304	0.798	-0.434
SMNDC1 (UniProt O75940)	-0.102	-0.117	-0.5
SMOC1 (UniProt Q9H4F8)	-0.587	-0.458	-1.55
SMPD2 (UniProt O60906)	-0.297	-0.186	-0.382
SMPD4 (UniProt Q9NXE4)	0.624	0.149	1.11
SMS (UniProt P52788)	0.652	0.823	4.34
SMTN (UniProt P53814)	0.0165	0.00756	-0.4
SMU1 (UniProt Q2TAY7)	-0.141	-0.0867	0.656
SMYD2 (UniProt Q9NRG4)	0.863	0.716	1.28
SMYD3 (UniProt Q9H7B4)	-0.135	-0.101	-0.25
SMYD4 (UniProt Q8IYR2)	-0.0691	-0.00905	-0.0713
SMYD5 (UniProt Q6GMV2)	-0.19	-0.177	0.224
SNAP23 (UniProt O00161)	0.994	1.06	-0.16
SNAP25 (UniProt P60880)	0.86	0.512	-0.723
SNAP29 (UniProt O95721)	-0.254	0.547	0.554
SNAP47 (UniProt Q5SQN1)	-0.303	-0.252	-0.104
SNAPC1 (UniProt Q16533)	-0.175	-0.207	0.0437
SNAPC3 (UniProt Q92966)	-0.219	-0.258	-0.108
SNAPC5 (UniProt O75971)	-0.0463	0.216	0.158
SNAPIN (UniProt O95295)	0.164	0.647	0.267
SNCA (UniProt P37840)	0.553	0.198	-0.263
SNCG (UniProt O76070)	1.49	0.999	0.0455
SND1 (UniProt Q7KZF4)	0.317	0.479	-1.08
SNF8 (UniProt Q96H20)	-0.129	-0.418	-0.156
SNRNP27 (UniProt Q8WVK2)	0.418	-0.21	0.444

Target	thermal stability z-score [1, 3]	thermal stability z-score ([1]; arsenate co-treatment: none)	thermal stability z-score [2]
SNRNP40 (UniProt Q96DI7)	0.383	-0.0333	-0.213
SNRNP70 (UniProt P08621)	-0.195	-0.247	-0.58
SNRNP200 (UniProt O75643)	-0.116	-0.285	-0.662
SNRPA1 (UniProt P09661)	1.91	1.08	0.474
SNRPA (UniProt P09012)	0.0421	-0.126	0.938
SNRPB2 (UniProt P08579)	0.953	0.704	-0.319
SNRPB|SNRPN	0.508	0.162	0.578
SNRPC (UniProt P09234)	0.137	0.0659	0.905
SNRPD2 (UniProt P62316)	1.08	0.689	1.15
SNRPD3 (UniProt P62318)	0.93	0.207	0.399
SNRPF (UniProt P62306)	0.0402	-0.072	0.116
SNRPGP15|SNRPG	1.63	0.677	0.296
SNTB1 (UniProt Q13884)	-0.307	1.19	1.29
SNTB2 (UniProt Q13425)	0.14	-0.309	-0.227
SNU13 (UniProt P55769)	-0.119	0.0598	1.62
SNUPN (UniProt O95149)	-0.201	-1.48	-0.43
SNW1 (UniProt Q13573)	-0.497	-0.726	-0.395
SNX1 (UniProt Q13596)	0.0174	-0.29	0.327
SNX2 (UniProt O60749)	-0.0255	0.0641	0.364
SNX3 (UniProt O60493)	-0.62	-0.231	0.0169
SNX4 (UniProt O95219)	-0.688	-0.344	0.288
SNX5 (UniProt Q9Y5X3)	-0.497	-0.998	-0.458
SNX6 (UniProt Q9UNH7)	0.175	0.276	0.277
SNX8 (UniProt Q9Y5X2)	1.1	-0.149	-0.369
SNX9 (UniProt Q9Y5X1)	-0.0697	-0.0413	0.276
SNX12 (UniProt Q9UMY4)	-0.128	-0.00318	0.108
SNX15 (UniProt Q9NRS6)	-0.412	0.114	0.121
